According to US10597388B2, “Pyridazinone herbicides” (FMC CORPORATION, priority 2014, dated 2020):
Where two headings read alike, the source gives them in different places.

Legend:
Assay type in all cases: in vivo
rice (Oryza sativa) = assay: Test B flooded paddy test; conditions: 250 g ai/ha, Flood, visual rating on scale of 0 to 100 where 0 is no effect and 100 is complete control, 13 to 15 d after treatment
Method in brief: (§1)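 Plants at the 2-leaf stage were flooded to 3 cm above soil, and test compounds were applied directly into the paddy water, which was held at that depth throughout. After 13 to 15 d in a greenhouse, injury was rated visually against untreated controls on a 0–100 scale (0 no effect, 100 complete control).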

[1] = test system: sedge, umbrella (small-flower umbrella sedge, Cyperus difformis); assay: Test B flooded paddy test; conditions: 250 g ai/ha, Flood, visual rating on scale of 0 to 100 where 0 is no effect and 100 is complete control, 13 to 15 d after treatment
Method in brief: as §1

[2] = test system: barnyardgrass (Echinochloa crus-galli); assay: Test B flooded paddy test; conditions: 250 g ai/ha, Flood, visual rating on scale of 0 to 100 where 0 is no effect and 100 is complete control, 13 to 15 d after treatment
Method in brief: as §1

[3] = test system: ducksalad (Heteranthera limosa); assay: Test B flooded paddy test; conditions: 250 g ai/ha, Flood, visual rating on scale of 0 to 100 where 0 is no effect and 100 is complete control, 13 to 15 d after treatment
Method in brief: as §1

[4] = test system: foxtail, giant (giant foxtail, Setaria faberii); assay: Test A greenhouse herbicide test, pre- and postemergence; conditions: for pest or weed control at 1000 g/ha: Setaria faberi, 240 h, 1000 g ai/ha
Method in brief: (§2)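 Seeds sown in loam–sand blend got a preemergence directed soil spray of compound in non-phytotoxic solvent with surfactant. Postemergence treatment was given at 2–10 cm, one- to two-leaf stage. After ~10 d in greenhouse, injury was rated visually vs untreated controls, 0 (no effect) to 100 (complete control).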

corn (Zea mays) = assay: as above
Method in brief: as §2

[5] = test system: crabgrass, large (large crabgrass, Digitaria sanguinalis); assay: as above; conditions: 240 h, 1000 g ai/ha, 0 to 100 scale
Method in brief: as §2

[6] = test system: momingglory (Ipomoea spp.); assay: as above; conditions: 240 h, 1000 g ai/ha, 0 to 100 scale
Method in brief: as §2

[7] = test system: pigweed (Amaranthus retroflexus); assay: as above; conditions: for pest or weed control at 1000 g/ha: Amaranthus retroflexus, 240 h, 1000 g ai/ha
Method in brief: as §2

[8] = test system: barnyardgrass (Echinochloa crus-galli); assay: as above; conditions: for pest or weed control at 1000 g/ha: Echinochloa crus-galli, 240 h, 1000 g ai/ha
Method in brief: as §2

[9] = test system: wheat (Triticum aestivum); assay: as above; conditions: for plant injury at 1000 g/ha: Triticum aestivum, 240 h, 1000 g ai/ha
Method in brief: as §2

[10] = test system: velvetleaf (Abutilon theophrasti); assay: as above; conditions: 240 h, 1000 g ai/ha, 0 to 100 scale
Method in brief: as §2

[11] = test system: galium (catchweed bedstraw, Galium aparine); assay: Test A greenhouse herbicide test, postemergence
Method in brief: (§3)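 Greenhouse postemergence test: formulated chemicals sprayed on one- to two-leaf plants (2 to 10 cm), grown in loam soil blended with sand. Injury assessed visually about 10 d later against untreated controls, scored 0 (no effect) to 100 (complete control).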

[12] = test system: blackgrass (Alopecurus myosuroides); assay: Test A greenhouse herbicide test, postemergence
Method in brief: as §3

[13] = test system: ragweed (common ragweed, Ambrosia elatior); assay: Test A greenhouse herbicide test, pre- and postemergence
Method in brief: as §2

kochia (Kochia scoparia) = assay: as above
Method in brief: as §2

[14] = test system: ryegrass, Italian (Italian ryegrass, Lolium multiflorum); assay: as above
Method in brief: as §2

[15] = 125 g ai/ha, 0 to 100 scale, 0 no effect, 100 complete control
[16] = 500 g ai/ha, visual rating after approx. 10 d, 0 to 100 scale (0 no effect, 100 complete control)
[17] = Postemergence, 125 g ai/ha, 0 to 100 scale, 0 no effect, 100 complete control
[18] = Postemergence, 500 g ai/ha, visual rating after approx. 10 d, 0 to 100 scale (0 no effect, 100 complete control)
[19] = Preemergence, 500 g ai/ha, 0 to 100 scale where 0 is no effect and 100 is complete control
[20] = Preemergence, second run of lines under the 500 g ai/ha head, rate not given, 0 to 100 scale

Cc1ccc2oc(C)c(-c3c(O)c(C)nn(C)c3=O)c2c1 [Compound 7, 4-(2,5-dimethyl-3-benzofuranyl)-5-hydroxy-2,6-dimethyl-3(2H)-pyridazinone]
plant injury at 250 g/ha (rice (Oryza sativa); Oryza sativa, 360 h, read-out: Plant response rating, Rice): 0%
pest or weed control at 250 g/ha ([1]; Cyperus difformis, 360 h, read-out: Plant response rating, Sedge, Umbrella): 60%
pest or weed control at 250 g/ha ([2]; Echinochloa crus-galli, 360 h, read-out: Plant response rating, Barnyardgrass): 20%
pest or weed control at 250 g/ha ([3]; Heteranthera limosa, 360 h, read-out: Plant response rating, Ducksalad): 60%
pest or weed control at 1000 g/ha ([4]; post-emergence, Postemergence, 0 to 100 scale, 0 is no effect, 100 is complete control, read-out: Foxtail, Giant plant response rating): 90%
pest or weed control at 1000 g/ha ([4]; pre-emergence, Preemergence, 0 to 100 scale, 0 no effect, 100 complete control, read-out: Plant response rating, Foxtail, Giant): 90%
plant injury at 1000 g/ha (corn (Zea mays); Zea mays, post-emergence, 240 h, Postemergence, 1000 g ai/ha, 0 to 100 scale, 0 is no effect, 100 is complete control, read-out: Corn plant response rating): 10%
Corn plant response rating (crop injury, 0 = no effect, 100 = complete kill) at 1000 g/ha (corn (Zea mays); Zea mays, pre-emergence, 240 h, Preemergence, 1000 g ai/ha, 0 to 100 scale, 0 no effect, 100 complete control): 30%
pest or weed control at 1000 g/ha ([5]; post-emergence, Postemergence, 0 is no effect, 100 is complete control, read-out: Crabgrass, Large plant response rating): 50%
pest or weed control at 1000 g/ha ([5]; pre-emergence, Preemergence, 0 no effect, 100 complete control, read-out: Plant response rating, Crabgrass, Large): 90%
pest or weed control at 1000 g/ha ([6]; post-emergence, Postemergence, 0 is no effect, 100 is complete control, read-out: Morningglory plant response rating): 100%
pest or weed control at 1000 g/ha ([6]; pre-emergence, Preemergence, 0 no effect, 100 complete control, read-out: Plant response rating, Morningglory): 80%
pest or weed control at 1000 g/ha ([7]; post-emergence, Postemergence, 0 to 100 scale, 0 is no effect, 100 is complete control, read-out: Pigweed plant response rating): 100%
pest or weed control at 1000 g/ha ([7]; pre-emergence, Preemergence, 0 to 100 scale, 0 no effect, 100 complete control, read-out: Plant response rating, Pigweed): 100%
pest or weed control at 1000 g/ha ([8]; post-emergence, Postemergence, 0 to 100 scale, 0 is no effect, 100 is complete control, read-out: Barnyardgrass plant response rating): 90%
pest or weed control at 1000 g/ha ([8]; pre-emergence, Preemergence, 0 to 100 scale, 0 no effect, 100 complete control, read-out: Plant response rating, Barnyardgrass): 100%
plant injury at 1000 g/ha ([9]; post-emergence, Postemergence, 0 to 100 scale, 0 is no effect, 100 is complete control, read-out: Wheat plant response rating): 20%
plant injury at 1000 g/ha ([9]; pre-emergence, Preemergence, 0 to 100 scale, 0 no effect, 100 complete control, read-out: Plant response rating, Wheat): 0%
pest or weed control at 1000 g/ha ([10]; post-emergence, Postemergence, 0 is no effect, 100 is complete control, read-out: Velvetleaf plant response rating): 100%
pest or weed control at 1000 g/ha ([10]; pre-emergence, Preemergence, 0 no effect, 100 complete control, read-out: Plant response rating, Velvetleaf): 80%

Cc1nn(C)c(=O)c(-c2ccc(Cl)c3ccccc23)c1OP(C)(C)=O [Compound 187]
Plant response rating, Rice (rice (Oryza sativa)): 20
Plant response rating, Sedge, Umbrella [1]: 0
Plant response rating, Barnyardgrass [2]: 0
Plant response rating, Ducksalad [3]: 0
Plant response rating, Galium [11, 15]: 90
Plant response rating, Galium [11, 16]: 100
Plant response rating, Blackgrass [12, 15]: 40
Plant response rating, Blackgrass [12, 16]: 70
Plant response rating, Foxtail, Giant [4, 17]: 50
Plant response rating, Foxtail, Giant [4, 18]: 80
Plant response rating, Foxtail, Giant [4, 19]: 70
Plant response rating, Foxtail, Giant [4, 20]: 20
Plant response rating, Corn (corn (Zea mays); [17]): 0
Plant response rating, Corn (corn (Zea mays); [18]): 30
Plant response rating, Ragweed [13, 17]: 100
Plant response rating, Ragweed [13, 18]: 100
Plant response rating, Ragweed [13, 19]: 80
Plant response rating, Ragweed [13, 20]: 70
Plant response rating, Pigweed [7, 17]: 70
Plant response rating, Pigweed [7, 18]: 90
Plant response rating, Pigweed [7, 19]: 100
Plant response rating, Pigweed [7, 20]: 90
Plant response rating, Barnyardgrass [8, 17]: 30
Plant response rating, Barnyardgrass [8, 18]: 80
Plant response rating, Barnyardgrass [8, 19]: 90
Plant response rating, Barnyardgrass [8, 20]: 70
Plant response rating, Kochia (kochia (Kochia scoparia); [17]): 90
Plant response rating, Kochia (kochia (Kochia scoparia); [18]): 100
Plant response rating, Kochia (kochia (Kochia scoparia); [19]): 100
Plant response rating, Kochia (kochia (Kochia scoparia); [20]): 60
Plant response rating, Ryegrass, Italian [14, 17]: 100
Plant response rating, Ryegrass, Italian [14, 18]: 100
Plant response rating, Ryegrass, Italian [14, 19]: 100
Plant response rating, Ryegrass, Italian [14, 20]: 100
Plant response rating, Wheat [9, 17]: 0
Plant response rating, Wheat [9, 18]: 30

Cc1cc(C)c2sc(C)c(-c3c(OCC#N)c(C)nn(C)c3=O)c2c1 [Compound 188]
Plant response rating, Rice (rice (Oryza sativa)): 0
Plant response rating, Sedge, Umbrella [1]: 0
Plant response rating, Barnyardgrass [2]: 0
Plant response rating, Ducksalad [3]: 0
Plant response rating, Galium [11, 15]: 70
Plant response rating, Galium [11, 16]: 90
Plant response rating, Blackgrass [12, 15]: 10
Plant response rating, Blackgrass [12, 16]: 60
Plant response rating, Foxtail, Giant [4, 17]: 20
Plant response rating, Foxtail, Giant [4, 18]: 80
Plant response rating, Foxtail, Giant [4, 19]: 90
Plant response rating, Foxtail, Giant [4, 20]: 10
Plant response rating, Corn (corn (Zea mays); [17]): 0
Plant response rating, Corn (corn (Zea mays); [18]): 0
Plant response rating, Ragweed [13, 17]: 20
Plant response rating, Ragweed [13, 18]: 50
Plant response rating, Ragweed [13, 19]: 30
Plant response rating, Ragweed [13, 20]: 10
Plant response rating, Pigweed [7, 17]: 50
Plant response rating, Pigweed [7, 18]: 80
Plant response rating, Pigweed [7, 19]: 90
Plant response rating, Pigweed [7, 20]: 60
Plant response rating, Barnyardgrass [8, 17]: 10
Plant response rating, Barnyardgrass [8, 18]: 20
Plant response rating, Barnyardgrass [8, 19]: 30
Plant response rating, Barnyardgrass [8, 20]: 10
Plant response rating, Kochia (kochia (Kochia scoparia); [17]): 10
Plant response rating, Kochia (kochia (Kochia scoparia); [18]): 20
Plant response rating, Kochia (kochia (Kochia scoparia); [19]): 20
Plant response rating, Kochia (kochia (Kochia scoparia); [20]): 20
Plant response rating, Ryegrass, Italian [14, 17]: 20
Plant response rating, Ryegrass, Italian [14, 18]: 80
Plant response rating, Ryegrass, Italian [14, 19]: 80
Plant response rating, Ryegrass, Italian [14, 20]: 20
Plant response rating, Wheat [9, 17]: 0
Plant response rating, Wheat [9, 18]: 0
